Values after ≈ are worked out from the molar mass of the structure shown. Active and inactive are the calls of the source. No rule for the calls is given here.
Key:
Streptococcus pneumoniae = experiment: Antimicrobial activity against Streptococcus pneumoniae IID553 by micro broth dilution or agar based method; type: functional
Enterococcus faecium = experiment: Antimicrobial activity against vancomycin-resistant Enterococcus faecium VanA by micro broth dilution or agar based method; type: functional
Escherichia coli = experiment: Antimicrobial activity against Escherichia coli ATCC 25922 by micro broth dilution or agar based method; type: functional
Staphylococcus aureus [1] = experiment: Antimicrobial activity against methicillin-resistant Staphylococcus aureus OIT971 by micro broth dilution or agar based method; type: functional, organism-based
Acinetobacter baumannii = experiment: Antimicrobial activity against Acinetobacter baumannii IID876 by micro broth dilution or agar based method; type: functional
Pseudomonas aeruginosa = experiment: Antimicrobial activity against Pseudomonas aeruginosa PAO1 by micro broth dilution or agar based method; type: functional
Staphylococcus aureus [2] = experiment: Antimicrobial activity against Staphylococcus aureus Smith by micro broth dilution or agar based method; type: functional

Structure (SMILES): O=C(O)COc1ccc2ncc(F)c(CCC34CCC(NCc5ccc6c(n5)NC(=O)CO6)(CC3)CO4)c2n1
- MIC (Streptococcus pneumoniae): 16 µg/mL (≈ 29.8 µM)
- MIC (Enterococcus faecium): 16 µg/mL (≈ 29.8 µM)
- MIC (Escherichia coli): 16 µg/mL (≈ 29.8 µM)
- growth inhibition (GI) (Staphylococcus aureus [1]): Active
- MIC (Acinetobacter baumannii): 16 µg/mL (≈ 29.8 µM)
- MIC (Pseudomonas aeruginosa): 16 µg/mL (≈ 29.8 µM)
- MIC (Staphylococcus aureus [2]): 16 µg/mL (≈ 29.8 µM)

Structure (SMILES): O=C1COc2ccc(CNC34CCC(CCc5c(F)cnc6ccc(OCCO)nc56)(CC3)OC4)nc2N1
- MIC (Streptococcus pneumoniae): 0.25 µg/mL (≈ 0.477 µM)
- MIC (Enterococcus faecium): 1 µg/mL (≈ 1.91 µM)
- MIC (Escherichia coli): 4 µg/mL (≈ 7.64 µM)
- MIC (Acinetobacter baumannii): 1 µg/mL (≈ 1.91 µM)
- MIC (Pseudomonas aeruginosa): 8 µg/mL (≈ 15.3 µM)
- MIC (Staphylococcus aureus [2]): 0.031 µg/mL (≈ 0.0592 µM)

Structure (SMILES): COc1ccc2ncc(F)c(C[C@H](O)C34CCC(NCc5ccc6c(n5)NC(=O)CO6)(CC3)CO4)c2n1 [listing 1 of 2 here]
- growth inhibition (GI) (Staphylococcus aureus [1]): Active

Structure (SMILES): N[C@@H]1COC[C@H]1Oc1ccc2ncc(F)c(CCC34CCC(NCc5ccc6c(n5)NC(=O)CO6)(CC3)CO4)c2n1
- MIC (Streptococcus pneumoniae): 0.5 µg/mL (≈ 0.886 µM)
- MIC (Enterococcus faecium): 8 µg/mL (≈ 14.2 µM)
- MIC (Escherichia coli): 4 µg/mL (≈ 7.08 µM)
- growth inhibition (GI) (Staphylococcus aureus [1]): Active
- MIC (Acinetobacter baumannii): 1 µg/mL (≈ 1.77 µM)
- MIC (Pseudomonas aeruginosa): 16 µg/mL (≈ 28.3 µM)
- MIC (Staphylococcus aureus [2]): 0.125 µg/mL (≈ 0.221 µM)

Structure (SMILES): O=C1COc2ccc(CNC34CCC(CCc5c(F)cnc6ccc(OC[C@H]7C[C@@H]7C(=O)O)nc56)(CC3)OC4)nc2N1
- MIC (Streptococcus pneumoniae): 0.25 µg/mL (≈ 0.433 µM)
- MIC (Enterococcus faecium): 4 µg/mL (≈ 6.93 µM)
- MIC (Escherichia coli): 16 µg/mL (≈ 27.7 µM)
- growth inhibition (GI) (Staphylococcus aureus [1]): Active
- MIC (Acinetobacter baumannii): 16 µg/mL (≈ 27.7 µM)
- MIC (Pseudomonas aeruginosa): 16 µg/mL (≈ 27.7 µM)
- MIC (Staphylococcus aureus [2]): 0.25 µg/mL (≈ 0.433 µM)

Structure (SMILES): N[C@H]1COC[C@@H]1Oc1ccc2ncc(F)c(CCC34CCC(NCc5ccc6c(n5)NC(=O)CO6)(CC3)CO4)c2n1
- MIC (Streptococcus pneumoniae): 4 µg/mL (≈ 7.08 µM)
- MIC (Enterococcus faecium): 16 µg/mL (≈ 28.3 µM)
- MIC (Escherichia coli): 8 µg/mL (≈ 14.2 µM)
- growth inhibition (GI) (Staphylococcus aureus [1]): Active
- MIC (Acinetobacter baumannii): 2 µg/mL (≈ 3.54 µM)
- MIC (Pseudomonas aeruginosa): 32 µg/mL (≈ 56.7 µM)
- MIC (Staphylococcus aureus [2]): 0.25 µg/mL (≈ 0.443 µM)

Structure (SMILES): NCCCCOc1ccc2ncc(F)c(CCC34CCC(NCc5ccc6c(n5)NC(=O)CO6)(CC3)CO4)c2n1
- MIC (Streptococcus pneumoniae): 1 µg/mL (≈ 1.82 µM)
- MIC (Enterococcus faecium): 8 µg/mL (≈ 14.5 µM)
- MIC (Escherichia coli): 4 µg/mL (≈ 7.26 µM)
- growth inhibition (GI) (Staphylococcus aureus [1]): Active
- MIC (Acinetobacter baumannii): 8 µg/mL (≈ 14.5 µM)
- MIC (Pseudomonas aeruginosa): 16 µg/mL (≈ 29.1 µM)
- MIC (Staphylococcus aureus [2]): 0.5 µg/mL (≈ 0.908 µM)

Structure (SMILES): O=C(O)CCCCOc1ccc2ncc(F)c(CCC34CCC(NCc5ccc6c(n5)NC(=O)CO6)(CC3)CO4)c2n1
- MIC (Streptococcus pneumoniae): 0.25 µg/mL (≈ 0.431 µM)
- MIC (Enterococcus faecium): 2 µg/mL (≈ 3.45 µM)
- MIC (Escherichia coli): 16 µg/mL (≈ 27.6 µM)
- growth inhibition (GI) (Staphylococcus aureus [1]): Active
- MIC (Acinetobacter baumannii): 16 µg/mL (≈ 27.6 µM)
- MIC (Pseudomonas aeruginosa): 16 µg/mL (≈ 27.6 µM)
- MIC (Staphylococcus aureus [2]): 0.063 µg/mL (≈ 0.109 µM)

Structure (SMILES): O=C1COc2ccc(CNC34CCC(CCc5c(F)cnc6ccc(OCCCCCO)nc56)(CC3)OC4)nc2N1
- growth inhibition (GI) (Staphylococcus aureus [1]): Active

Structure (SMILES): N[C@H]1CO[C@H]1COc1ccc2ncc(F)c(CCC34CCC(NCc5ccc6c(n5)NC(=O)CO6)(CC3)CO4)c2n1
- MIC (Streptococcus pneumoniae): 0.5 µg/mL (≈ 0.886 µM)
- MIC (Enterococcus faecium): 4 µg/mL (≈ 7.08 µM)
- MIC (Escherichia coli): 4 µg/mL (≈ 7.08 µM)
- growth inhibition (GI) (Staphylococcus aureus [1]): Active
- MIC (Acinetobacter baumannii): 1 µg/mL (≈ 1.77 µM)
- MIC (Pseudomonas aeruginosa): 32 µg/mL (≈ 56.7 µM)
- MIC (Staphylococcus aureus [2]): 0.063 µg/mL (≈ 0.112 µM)

Structure (SMILES): O=C1COc2ccc(CNC34CCC(CCc5c(F)cnc6ccc(OCC7(CO)CC7)nc56)(CC3)OC4)nc2N1
- MIC (Streptococcus pneumoniae): 1 µg/mL (≈ 1.77 µM)
- MIC (Enterococcus faecium): 4 µg/mL (≈ 7.1 µM)
- MIC (Escherichia coli): 16 µg/mL (≈ 28.4 µM)
- growth inhibition (GI) (Staphylococcus aureus [1]): Active
- MIC (Acinetobacter baumannii): 4 µg/mL (≈ 7.1 µM)
- MIC (Pseudomonas aeruginosa): 32 µg/mL (≈ 56.8 µM)
- MIC (Staphylococcus aureus [2]): 0.063 µg/mL (≈ 0.112 µM)

Structure (SMILES): N[C@@H]1CO[C@H]1COc1ccc2ncc(F)c(CCC34CCC(NCc5ccc6c(n5)NC(=O)CO6)(CC3)CO4)c2n1
- MIC (Streptococcus pneumoniae): 2 µg/mL (≈ 3.54 µM)
- MIC (Enterococcus faecium): 8 µg/mL (≈ 14.2 µM)
- MIC (Escherichia coli): 4 µg/mL (≈ 7.08 µM)
- growth inhibition (GI) (Staphylococcus aureus [1]): Active
- MIC (Acinetobacter baumannii): 1 µg/mL (≈ 1.77 µM)
- MIC (Pseudomonas aeruginosa): 16 µg/mL (≈ 28.3 µM)
- MIC (Staphylococcus aureus [2]): 0.25 µg/mL (≈ 0.443 µM)

Structure (SMILES): NCC1(COc2ccc3ncc(F)c(CCC45CCC(NCc6ccc7c(n6)NC(=O)CO7)(CC4)CO5)c3n2)CC1
- MIC (Streptococcus pneumoniae): 0.5 µg/mL (≈ 0.889 µM)
- MIC (Enterococcus faecium): 16 µg/mL (≈ 28.4 µM)
- MIC (Escherichia coli): 8 µg/mL (≈ 14.2 µM)
- growth inhibition (GI) (Staphylococcus aureus [1]): Active
- MIC (Acinetobacter baumannii): 4 µg/mL (≈ 7.11 µM)
- MIC (Pseudomonas aeruginosa): 32 µg/mL (≈ 56.9 µM)
- MIC (Staphylococcus aureus [2]): 1 µg/mL (≈ 1.78 µM)

Structure (SMILES): O=C1COc2ccc(CNC34CCC([C@@H](O)Cc5c(F)cnc6ccc(OCCCO)nc56)(CC3)OC4)nc2N1
- MIC (Streptococcus pneumoniae): 0.5 µg/mL (≈ 0.903 µM)
- MIC (Enterococcus faecium): 4 µg/mL (≈ 7.23 µM)
- MIC (Escherichia coli): 16 µg/mL (≈ 28.9 µM)
- MIC (Acinetobacter baumannii): 4 µg/mL (≈ 7.23 µM)
- MIC (Pseudomonas aeruginosa): 16 µg/mL (≈ 28.9 µM)
- MIC (Staphylococcus aureus [2]): 0.125 µg/mL (≈ 0.226 µM)

Structure (SMILES): COC(=O)C1(COc2ccc3ncc(F)c(CCC45CCC(NCc6ccc7c(n6)NC(=O)CO7)(CC4)CO5)c3n2)CC1
- MIC (Streptococcus pneumoniae): 2 µg/mL (≈ 3.38 µM)
- MIC (Enterococcus faecium): 16 µg/mL (≈ 27 µM)
- MIC (Escherichia coli): 16 µg/mL (≈ 27 µM)
- growth inhibition (GI) (Staphylococcus aureus [1]): Active
- MIC (Acinetobacter baumannii): 8 µg/mL (≈ 13.5 µM)
- MIC (Pseudomonas aeruginosa): 16 µg/mL (≈ 27 µM)
- MIC (Staphylococcus aureus [2]): 0.125 µg/mL (≈ 0.211 µM)

Structure (SMILES): COCCOc1ccc2ncc(F)c(CCC34CCC(NCc5ccc6c(n5)NC(=O)CO6)(CC3)CO4)c2n1
- MIC (Streptococcus pneumoniae): 1 µg/mL (≈ 1.86 µM)
- MIC (Enterococcus faecium): 4 µg/mL (≈ 7.44 µM)
- MIC (Escherichia coli): 8 µg/mL (≈ 14.9 µM)
- MIC (Acinetobacter baumannii): 4 µg/mL (≈ 7.44 µM)
- MIC (Pseudomonas aeruginosa): 16 µg/mL (≈ 29.8 µM)
- MIC (Staphylococcus aureus [2]): 0.063 µg/mL (≈ 0.117 µM)

Structure (SMILES): O=C1COc2ccc(CNC34CCC(CCc5c(F)cnc6ccc(OCCC(F)(F)C(=O)O)nc56)(CC3)OC4)nc2N1
- MIC (Streptococcus pneumoniae): 16 µg/mL (≈ 26.6 µM)
- MIC (Enterococcus faecium): 16 µg/mL (≈ 26.6 µM)
- MIC (Escherichia coli): 16 µg/mL (≈ 26.6 µM)
- growth inhibition (GI) (Staphylococcus aureus [1]): Active
- MIC (Acinetobacter baumannii): 16 µg/mL (≈ 26.6 µM)
- MIC (Pseudomonas aeruginosa): 16 µg/mL (≈ 26.6 µM)
- MIC (Staphylococcus aureus [2]): 16 µg/mL (≈ 26.6 µM)

Structure (SMILES): CCOC(=O)C(F)(F)CCOc1ccc2ncc(F)c(CCC34CCC(NCc5ccc6c(n5)NC(=O)CO6)(CC3)CO4)c2n1
- MIC (Streptococcus pneumoniae): 8 µg/mL (≈ 12.7 µM)
- MIC (Enterococcus faecium): 64 µg/mL (≈ 102 µM)
- MIC (Escherichia coli): 64 µg/mL (≈ 102 µM)
- growth inhibition (GI) (Staphylococcus aureus [1]): Active
- MIC (Acinetobacter baumannii): 32 µg/mL (≈ 50.8 µM)
- MIC (Pseudomonas aeruginosa): 64 µg/mL (≈ 102 µM)
- MIC (Staphylococcus aureus [2]): 1 µg/mL (≈ 1.59 µM)

Structure (SMILES): COc1ccc2ncc(F)c(C[C@H](O)C34CCC(NCc5ccc6c(n5)NC(=O)CO6)(CC3)CO4)c2n1 [listing 2 of 2 here]
- MIC (Streptococcus pneumoniae): 0.05 µg/mL (≈ 0.0981 µM)
- MIC (Enterococcus faecium): 0.5 µg/mL (≈ 0.981 µM)
- MIC (Escherichia coli): 2 µg/mL (≈ 3.93 µM)
- MIC (Acinetobacter baumannii): 0.5 µg/mL (≈ 0.981 µM)
- MIC (Pseudomonas aeruginosa): 8 µg/mL (≈ 15.7 µM)
- MIC (Staphylococcus aureus [2]): 0.02 µg/mL (≈ 0.0393 µM)
